Entries after “also recorded” stand apart in the source; their conditions may differ. Read-outs that look alike come from different tables or passages of the source.
Tests used:
[1] = system: B16. F10 melanoma mouse models of colon carcinoma pulmonary metastasis; details: intranasal administration at very low doses compared with subcutaneous; cited from earlier work
[2] = system: B16. F10 melanoma pulmonary metastasis; details: intranasal versus subcutaneous; cited from earlier work
SARS-CoV2 [3] = details: for toxicity in mice: intranasal 2.5 mg/kg, 8 BL6 mice
[4] = system: mediastinal lymph node immune cells; type: in vivo, BL6 mice; details: both pre and post-infection administration; B cells, CD4+, CD8+, granulocytes, macrophages, dendritic cells
Calu3 cells = details: dilutions above this excluded from analyses of conditions 1 and 2
SARS-CoV2 [5] = type: cell-based
tumor microenvironment = details: cited from earlier work
HCV = details: cited from earlier work

In the case of “tilsotolimod: phosphorothioate oligonucleotide agonist of TLR9, sequence 5LTCG1AACG1TTCG1-X-G1CTTG1CAAG1CT-5′, X glycerol linker, G1 2′-deoxy-7-deazaguanosine (SEQ ID NO. 1) (DNA TCGAACGTTCGGCTTGCAAGCT; phosphorothioate, 7-deazaG, glycerol-linked 3'-3' dimer; (3)..(3) 2′-deoxy-7-deazaguanosine; (7)..(7) 2′-deoxy-7-deazaguanosine; (11)..(12) Linked by is a glycerol linker; (11)..(11) 2′-deoxy-7-deazaguanosine; (12)..(12) 2′-deoxy-7-deazaguanosine; (16)..(16) 2′-deoxy-7-deazaguanosine; (20)..(20) 2′-deoxy-7-deazaguanosine)”, the “tumor-specific CTLs in tracheobronchial lymph nodes” value [1] is listed as “significant increase”, the “antitumor potency of intranasal relative to subcutaneous treatment” value [2] is listed as “approximately 25 times” and the “infectious SARS-CoV2 titer (TCID50/Lung)” value (SARS-CoV2 [3]; intranasal 2.5 mg/kg one day after virus exposure, lungs three days post-infection) is listed as “reduced infection, although not statistically significant”. The toxicity in mice (SARS-CoV2 [3]; post-treatment group) was “No toxicity was observed”, the toxicity in mice (SARS-CoV2 [3]; pre-treatment group) was “one mouse died, and two showed signs of reduced mobility” and the “number of immune cells in the mediastinal lymph nodes” value [4] was “robust infiltration of immune cells; also recorded: robust changes in the number of immune cells”. For the same substance, the “concentration above which tilsotolimod induced toxicity” value (Calu3 cells) was “above 3 μM”, the “antiviral activity compared with controls” value (SARS-CoV2 [5]; treatment condition 1: 24 h pre-treatment, then infection for 48 hours) was “None of the serial dilutions for treatment condition 1 (tilsotolimod 24 h pre-treatment) resulted in significant antiviral activity” and the “reduction in TCID50” value (SARS-CoV2 [5]; treatment condition 2: co-treatment with SARS-CoV2 for 48 hours, most effective dilution 0.41 μM) was roughly 1 log. The “reduction in TCID50” value (SARS-CoV2 [5]; treatment condition 3: supernatant of 24 h pretreated Calu3 cells added to fresh cells then infected, 1:10 serial dilution (33 μM)) was roughly 3 log, the “Type I IFN pathway and dendritic cell maturation” value (tumor microenvironment; IFNα gene signature, MHC class I expression, patient biopsies) was “Activation of the Type I IFN pathway (induction of an IFNα gene signature) followed by maturation of dendritic cells” and the “time to immune effects in the tumor microenvironment” value (tumor microenvironment; biopsies after receiving tilsotolimod) was no more than 24 h. The “CD8+ cytotoxic T lymphocytes and tumor response” value (tumor microenvironment; injected and non-injected tumors) was “systemic increases in CD8+ cytotoxic T lymphocytes (CTLs) with subsequent reduction of both injected and non-injected tumors”, the viral load reductions (HCV; 0.16 mg/kg twice weekly plus ribavirin compared with pegIFN-α2a plus ribavirin) was “greater” and the rapid viral response (HCV; HCV-infected patients, all dose groups) was “none of the patients achieved rapid viral response”. The tolerability (HCV; subcutaneous 0.08, 0.16, 0.32 mg/kg once weekly and 0.16 mg/kg twice weekly, 4 weeks, with ribavirin) was “well tolerated with no discontinuations due to treatment-emergent adverse events” and the cytokine storm (HCV; tilsotolimod trials involving HCV) was “cytokine storm was not observed”.
